Experimental data from patent publication US20250332173A1, “COMPOUNDS AND METHODS FOR MODULATING NUCLEIC ACID SPLICING” (REMIX THERAPEUTICS INC., priority 2021, published 2025).

How the values were obtained:
MYB = test: HiBiT protein abundance assay, MYB HiBiT K562 cell line; format: cell-based, human; conditions: HiBiT K562 cell line, 24 hours, top dose 10 μM; read-out: Effect on protein abundance, MYB (IC50 category)
How it was run: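 Tagged-protein abundance measured by split-NanoBiT luminescence after lysis, following 24 h compound exposure (37° C; 10 μM top, 3-fold, 10 points; DMSO ≤0.25%) of HiBiT knock-in K562 cells. Percent response vs DMSO and unmodified-cell controls; 4-parameter logistic interpolation at 50% gave IC50.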

Target C = test: RT-qPCR splicing assay panel, Target C canonical junction (CJ) mRNA; format: cell-based, human; conditions: Homo sapiens; Table 5 panel; canonical junction qPCR; compound concentration having 50% response in CJ decrease; read-out: Target C IC50 (decrease in CJ mRNA levels)
How it was run: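 Read-out is canonical exon-exon junction mRNA quantified by RT-qPCR against a GAPDH, GUSB or PPIA control. Cells (A673 or K562) received compound for 24 h, top final dose 10 uM in an 11-point 3-fold series.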

Compound | IC50 (MYB) | IC50 (Target C)
Cc1cn2cc(-c3cc(F)c4c(=O)n(C5CCNC6(CC6)C5)ccc4c3)ncc2n1 (stereo not shown) [Compound 428, 8-fluoro-6-(2-methylimidazo[1,2-a]pyrazin-6-yl)-2-(4-azaspiro[2.5]octan-7-yl)isoquinolin-1(2H)-one] | 0.1 to 1 µM | 1 to 10 µM
Cc1cn2nc(-c3ccc4c(=O)n([C@H]5CCNC6(CC6)C5)ccc4c3)cc(C)c2n1 [Compound 445] | < 0.1 µM | < 0.1 µM
CN1C2C=C(c3ccc4c(=O)n(-c5ccc6nn(C)cc6c5)cnc4c3)CC1CC2 (stereo not shown) [Compound 161] | > 10 µM | > 10 µM
Cc1cn2c(n1)CCC(c1ccc3c(=O)n(C4CCNCC4)ccc3c1)C2 (stereo not shown) [Compound 453, 6-{2-methyl-5H,6H,7H,8H-imidazo[1,2-a]pyridin-6-yl}-2-(piperidin-4-yl)isoquinolin-1-one] | > 10 µM | > 10 µM
Cc1cn2nc(-c3cc(C)c4c(=O)n(C5CCNC6(CC6)C5)ncc4c3)cc(C)c2n1 (stereo not shown) [Compound 423, 6-(2,8-dimethylimidazo[1,2-b]pyridazin-6-yl)-8-methyl-2-(4-azaspiro[2.5]octan-7-yl)phthalazin-1(2H)-one] | < 0.1 µM | 0.1 to 1 µM
Cc1cc(-c2cc(F)c3c(=O)n(C4CCNC5(CC5)C4)ccc3c2)cc2c1nc(C)n2C (stereo not shown) [Compound 429] | 1 to 10 µM | > 10 µM
Cc1cn2nc(-c3cc(F)c4c(=O)n(C5CCNC5)ccc4c3)cc(C)c2n1 (stereo in doubt) [Compound 382, (R)-6-(2,8-dimethylimidazo[1,2-b]pyridazin-6-yl)-8-fluoro-2-(pyrrolidin-3-yl)isoquinolin-1(2H)-one] | 0.1 to 1 µM | > 10 µM
Cc1nc2c(F)cc(-c3cc(F)c4c(=O)n(C5CCNC6(CC6)C5)ccc4c3)cc2o1 (stereo not shown) [Compound 417, 2-{4-azaspiro[2.5]octan-7-yl}-8-fluoro-6-(4-fluoro-2-methyl-1,3-benzoxazol-6-yl)isoquinolin-1-one] | < 0.1 µM | 0.1 to 1 µM
Cc1cn2cc(-c3cc(F)c4c(=O)n(C5CCOC5)cnc4c3)cc(C#N)c2n1 (stereo in doubt) [Compound 499, (R)-6-(5-fluoro-4-oxo-3-(tetrahydrofuran-3-yl)-3,4-dihydroquinazolin-7-yl)-2-methylimidazo[1,2-a]pyridine-8-carbonitrile] | 0.1 to 1 µM | 0.1 to 1 µM
Cc1cc(-c2cc(F)c3c(=O)n(C4CCNC5(CC5)C4)ccc3c2)cc2cn(C)nc12 (stereo not shown) [Compound 415, 2-{4-azaspiro[2.5]octan-7-yl}-6-(2,7-dimethylindazol-5-yl)-8-fluoroisoquinolin-1-one] | < 0.1 µM | 0.1 to 1 µM
Cc1cn2cc(-n3ccc4cc(N5C[C@@H](C)N[C@@H](C)C5)ccc4c3=O)nc(C)c2n1 [Compound 454, 2-{2,8-dimethylimidazo[1,2-a]pyrazin-6-yl}-6-[(3R,5S)-3,5-dimethylpiperazin-1-yl]isoquinolin-1-one] | > 10 µM | > 10 µM
COc1cc(-c2cc(C)c3nc(C)cn3n2)cc2ccn(C3CCNCC3)c(=O)c12 [Compound 399, 6-{2,8-dimethylimidazo[1,2-b]pyridazin-6-yl}-8-methoxy-2-(piperidin-4-yl)isoquinolin-1-one] | 0.1 to 1 µM | 1 to 10 µM
Cc1cn2nc(-c3cc(Cl)c4c(=O)n(C5CCNCC5)ccc4c3)cc(C)c2n1 [Compound 390, 8-chloro-6-{2,8-dimethylimidazo[1,2-b]pyridazin-6-yl}-2-(piperidin-4-yl)isoquinolin-1-one; trifluoroacetaldehyde] | < 0.1 µM | < 0.1 µM
Cc1cn2cc(-c3ccc4c(=O)n(C5CCNC6(CC6)C5)ncc4c3)cc(Cl)c2n1 (stereo not shown) [Compound 510] | 1 to 10 µM | 1 to 10 µM
Cc1cn2cc(-c3ccc4c(=O)n(C5CCNC5)cc(C)c4c3)cc(C#N)c2n1 (stereo not shown) [Compound 442, 2-methyl-6-[4-methyl-1-oxo-2-(pyrrolidin-3-yl)isoquinolin-6-yl]imidazo[1,2-a]pyridine-8-carbonitrile] | > 10 µM | > 10 µM
Cc1cn2cc(-c3cc(F)c4c(=O)n(C5CCNC5)ccc4c3)cc(C#N)c2n1 (stereo not shown) [Compound 434, 6-[8-fluoro-1-oxo-2-(pyrrolidin-3-yl)isoquinolin-6-yl]-2-methylimidazo[1,2-a]pyridine-8-carbonitrile] | 1 to 10 µM | > 10 µM
Cc1cc(-c2ccc3c(=O)n([C@@H]4CCNC[C@H]4F)ncc3c2)cc2cn(C)nc12 [Compound 378] | 1 to 10 µM | 1 to 10 µM
Cc1cn2cc(-c3ccc4c(=O)n([C@H]5CCCNC5)ccc4c3)cc(F)c2n1 [Compound 404, 6-{8-fluoro-2-methylimidazo[1,2-a]pyridin-6-yl}-2-[(3S)-piperidin-3-yl]isoquinolin-1-one] | 0.1 to 1 µM | > 10 µM

Compound | IC50 (MYB) | IC50 (Target C)
CN1CCC(Nc2ccc3c(=O)n(-c4ccc5nn(C)cc5c4)cnc3c2)CC1 [Compound 163] | > 10 µM | > 10 µM
Cc1cn2nc(-c3cc(C#N)c4c(=O)n(C5CCNC6(CC6)C5)ccc4c3)cc(C)c2n1 (stereo not shown) [Compound 387] | < 0.1 µM | 0.1 to 1 µM
Cc1cn2cc(-c3cc(F)c4c(=O)n(C5CCNC6(CC6)C5)ccc4c3)cc(Cl)c2n1 (stereo not shown) [Compound 413, 2-{4-azaspiro[2.5]octan-7-yl}-6-{8-chloro-2-methylimidazo[1,2-a]pyridin-6-yl}-8-fluoroisoquinolin-1-one] | < 0.1 µM | 0.1 to 1 µM
Cc1cn2cc(-c3cc(F)c4c(=O)n(C5CCNC6(CC6)C5)ccc4c3)cc(C)c2n1 (stereo not shown) [Compound 416, 2-{4-azaspiro[2.5]octan-7-yl}-6-{2,8-dimethylimidazo[1,2-a]pyridin-6-yl}-8-fluoroisoquinolin-1-one] | < 0.1 µM | 0.1 to 1 µM
Cc1cn2cc(-c3cc(F)c4c(=O)n(C5CCOC5)cnc4c3)cc(C#N)c2n1 (stereo in doubt) [Compound 500, (S)-6-(5-fluoro-4-oxo-3-(tetrahydrofuran-3-yl)-3,4-dihydroquinazolin-7-yl)-2-methylimidazo[1,2-a]pyridine-8-carbonitrile] | 0.1 to 1 µM | 0.1 to 1 µM
Cc1cn2nc(-c3cc(C)c4c(=O)n(C5CCNC6(CC6)C5)ccc4c3)cc(C)c2n1 (stereo in doubt) [Compound 398, (R)-6-(2,8-dimethylimidazo[1,2-b]pyridazin-6-yl)-8-methyl-2-(4-azaspiro[2.5]octan-7-yl)isoquinolin-1(2H)-one] | < 0.1 µM | < 0.1 µM
Cc1cn2nc(-c3ccc4c(=O)n(C5CCCNC5)ccc4c3)cc(C)c2n1 (stereo in doubt) [Compound 410, 6-{2,8-dimethylimidazo[1,2-b]pyridazin-6-yl}-2-[(3S)-piperidin-3-yl]isoquinolin-1-one] | 0.1 to 1 µM | > 10 µM
Cc1c(O)c(-c2cc(F)c3c(=O)n(C4CCNC5(CC5)C4)ccc3c2)cc2cn(C)nc12 (stereo not shown) [Compound 419, 2-{4-azaspiro[2.5]octan-7-yl}-8-fluoro-6-(6-hydroxy-2,7-dimethylindazol-5-yl)isoquinolin-1-one] | 1 to 10 µM | > 10 µM
Cc1cn2nc(-c3cc(F)c4c(=O)n([C@H]5CCNC6(CC6)C5)ncc4c3)cc(C)c2n1 [Compound 447] | < 0.1 µM | < 0.1 µM
Cn1cc2cc(-c3cc(F)c4c(=O)n(C5CCNC6(CC6)C5)ccc4c3)cc(F)c2n1 (stereo not shown) [Compound 412] | < 0.1 µM | < 0.1 µM
Cc1cn2nc(-c3cc(F)c4c(=O)n(C5CCN(C)CC5)ccc4c3)cc(C)c2n1 [Compound 400, 6-(2,8-dimethylimidazo[1,2-b]pyridazin-6-yl)-8-fluoro-2-(1-methylpiperidin-4-yl)isoquinolin-1(2H)-one] | < 0.1 µM | 0.1 to 1 µM
Cc1cn2nc(-c3cc(O)c4c(=O)n(C5CCNC5)ccc4c3)cc(C)c2n1 (stereo not shown) [Compound 432, 6-{2,8-dimethylimidazo[1,2-b]pyridazin-6-yl}-8-hydroxy-2-(pyrrolidin-3-yl)isoquinolin-1-one] | < 0.1 µM | 1 to 10 µM
Cc1cn2cc(-c3cc(F)c4c(=O)n([C@@H]5CCNC5)ccc4c3)cc(F)c2n1 (single isomer, unassigned) [Compound 395] | 0.1 to 1 µM | > 10 µM
Cc1cn2cc(-c3cc(F)c4c(=O)n(C5CCNCC5)ccc4c3)cc(C#N)c2n1 [Compound 383, 6-[8-fluoro-1-oxo-2-(piperidin-4-yl)isoquinolin-6-yl]-2-methylimidazo[1,2-a]pyridine-8-carbonitrile] | < 0.1 µM | 1 to 10 µM
Cc1cn2nc(-c3ccc4c(=O)n(C5CCNCC5)cc(C)c4c3)cc(C)c2n1 [Compound 381, 6-{2,8-dimethylimidazo[1,2-b]pyridazin-6-yl}-4-methyl-2-(piperidin-4-yl)isoquinolin-1-one] | < 0.1 µM | 1 to 10 µM
Cc1cn2cc(-c3ccc4c(=O)n([C@@H]5CCNC5)cc(C)c4c3)cc(F)c2n1 [Compound 452, (R)-6-(8-fluoro-2-methylimidazo[1,2-a]pyridin-6-yl)-4-methyl-2-(pyrrolidin-3-yl)isoquinolin-1(2H)-one] | 1 to 10 µM | > 10 µM
Cc1cn2nc(-c3ccc4c(=O)n([C@@H]5CCNC6(CC6)C5)ncc4c3)cc(C)c2n1 (stereo in doubt) [Compound 368, 2-[(7R)-4-azaspiro[2.5]octan-7-yl]-6-{2,8-dimethylimidazo[1,2-b]pyridazin-6-yl}phthalazin-1-one] | < 0.1 µM | 0.1 to 1 µM
